Measured values published in EPA's ToxValDB 9.5 (doi:10.2903/j.efsa.2006.85r).
Converted amounts (≈) assume the structure as drawn.

Tests used:
Apis mellifera = conditions: acute; duration: 48 hours; oral; unspecified; mortality
Canidae = conditions: oral, Dog Other, clinical chemistry
Daphnia magna = conditions: chronic/long-term; duration: 21 days
Lepomis macrochirus = conditions: acute; duration: 96 hours; mortality
Pimephales promelas = conditions: chronic/long-term; duration: 34 days; growth
Tagia sp. = conditions: acute; duration: 14 days; mortality
Typhlodromus pyri = test: LR50; higher = less toxic; conditions: not reported; mortality

With `CCOP(=S)(OCC)Oc1cc(C)nc(C(C)C)n1` [Diazinon] the LD50 (Anas platyrhynchos; acute, oral, unspecified, mortality) was 1.44 mg/kg, the NOEL (Anas platyrhynchos; reproductive) was 1.2 mg/kg-day and the LC50 (Anas platyrhynchos; short-term, duration: 8 days, oral, feed, mortality) was 8 mg/kg-day. The LD50 (Apis mellifera) was 0.09 µg/piece, the NOAEL (Canidae; chronic, duration: 52 weeks) was 0.02 mg/kg-day and the NOAEL (Canidae; subchronic, duration: 90 days) was 0.02 mg/kg-day. It also gave an NOEC (Daphnia magna) of 0.00017 mg/L, an LC50 (Lepomis macrochirus) of 0.27 µg/mL (≈ 0.887 µM) and an NOEC (Pimephales promelas) of 0.092 mg/L. It also gave an NOAEL (Rattus norvegicus; acute, oral, clinical chemistry) of 2.5 mg/kg-day, an LD50 (Rattus norvegicus; acute, oral, mortality) of 1130 mg/kg-day and an NOEC (Rattus norvegicus; reproduction developmental, reproduction) of 0.65 mg/kg-day. It also gave an LC50 (Tagia sp.) of 65 mg/kg, an NOEL (Tagia sp.) of 6.15 mg/kg and an LR50 (Typhlodromus pyri) of 0.153 g/ha.
